Experiment [1] deals with OGA in HEK293 cells inducible for P301L mutant human Tau (isoform 2N4R). Briefly: OGA cellular assay: immunocytochemical detection of O-GlcNAcylated proteins (CTD110.6 antibody). The conditions noted are these: Homo sapiens, HEK293, 6 h, 6 hours incubation; for Emax: maximum = Thiamet G 200 uM; for EC50: read-out: Cellular hOGA, pEC50 (converted). The class given is cell-based. As to the method: HEK293 cells inducible for P301L mutant human Tau (isoform 2N4R) were established at Janssen. Thiamet-G was used for both plate validation (high control) and as reference compound (reference EC50 assay validation). OGA inhibition is evaluated through the immunocytochemical (ICC) detection of O-GlcNAcylated proteins by the use of a monoclonal antibody (CTD110.6; Cell Signaling, #9875) detecting 0-GlcNAcylated residues as previously described (Dorfmueller et al. 2010 Chemistry & biology, 17:1250). Inhibition of OGA will result in an increase of O-GlcNAcylated protein levels resulting in an increased signal in the experiment. Cell nuclei are stained with Hoechst to give a cell culture quality control and a rough estimate of immediate compounds toxicity, if any. ICC pictures are imaged with a Perkin Elmer Opera Phenix plate microscope and quantified with the provided software Perkin Elmer Harmony 4.1.
Cells were propagated in DMEM high Glucose (Sigma, #D5796) following standard procedures. 2 days before the cell assay cells are split, counted and seeded in Poly-D-Lysine (PDL) coated 96-wells (Greiner, #655946) plate at a cell density of 12,000 cells per cm^2 (4,000 cells per well) in 100p of Assay Medium (Low Glucose medium is used to reduce basal levels of GlcNAcylation) (Park et al. 2014 The Journal of biological chemistry 289:13519). At the day of compound test medium from assay plates was removed and replenished with 90 µl of fresh Assay Medium. 10p of compounds at a 10 fold final concentration were added to the wells. Plates were centrifuged shortly before incubation in the cell incubator for 6 hours. DMSO concentration was set to 0.2%. Medium is discarded by applying vacuum. For staining of cells medium was removed and cells washed once with 100 μl D-PBS (Sigma, #D8537). From next step onwards unless other stated assay volume was always 50p and incubation was performed without agitation and at room temperature. Cells were fixed in 50 μl of a 4% paraformaldehyde (PFA, Alpha aesar, #043368) PBS solution for 15 minutes at room temperature. […] Before analysis samples were washed 2 times manually for 5 minutes in ICC base buffer.
Imaging is performed using Perkin Elmer Phenix Opera using a water 20× objective and recording 9 fields per well. Intensity readout at 488 nm is used as a measure of O-GlcNAcylation level of total proteins in wells. To assess potential toxicity of compounds nuclei were counted using the Hoechst staining. IC50-values are calculated using parametric non-linear regression model fitting. As a maximum inhibition Thiamet G at a 200 uM concentration is present on each plate. In addition, a concentration response of Thiamet G is calculated on each plate.

Experiment [2] deals with T1, recombinant human Meningioma Expressed Antigen 5 (MGEA5), also referred to as O-GlcNAcase (OGA) (Homo sapiens, UniProt O60502).
T1 construct: Full length OGA enzyme was purchased at OnGene (cat #TP322411); purchased OnGene (so in the source)
T1 sequence (O60502 1-916): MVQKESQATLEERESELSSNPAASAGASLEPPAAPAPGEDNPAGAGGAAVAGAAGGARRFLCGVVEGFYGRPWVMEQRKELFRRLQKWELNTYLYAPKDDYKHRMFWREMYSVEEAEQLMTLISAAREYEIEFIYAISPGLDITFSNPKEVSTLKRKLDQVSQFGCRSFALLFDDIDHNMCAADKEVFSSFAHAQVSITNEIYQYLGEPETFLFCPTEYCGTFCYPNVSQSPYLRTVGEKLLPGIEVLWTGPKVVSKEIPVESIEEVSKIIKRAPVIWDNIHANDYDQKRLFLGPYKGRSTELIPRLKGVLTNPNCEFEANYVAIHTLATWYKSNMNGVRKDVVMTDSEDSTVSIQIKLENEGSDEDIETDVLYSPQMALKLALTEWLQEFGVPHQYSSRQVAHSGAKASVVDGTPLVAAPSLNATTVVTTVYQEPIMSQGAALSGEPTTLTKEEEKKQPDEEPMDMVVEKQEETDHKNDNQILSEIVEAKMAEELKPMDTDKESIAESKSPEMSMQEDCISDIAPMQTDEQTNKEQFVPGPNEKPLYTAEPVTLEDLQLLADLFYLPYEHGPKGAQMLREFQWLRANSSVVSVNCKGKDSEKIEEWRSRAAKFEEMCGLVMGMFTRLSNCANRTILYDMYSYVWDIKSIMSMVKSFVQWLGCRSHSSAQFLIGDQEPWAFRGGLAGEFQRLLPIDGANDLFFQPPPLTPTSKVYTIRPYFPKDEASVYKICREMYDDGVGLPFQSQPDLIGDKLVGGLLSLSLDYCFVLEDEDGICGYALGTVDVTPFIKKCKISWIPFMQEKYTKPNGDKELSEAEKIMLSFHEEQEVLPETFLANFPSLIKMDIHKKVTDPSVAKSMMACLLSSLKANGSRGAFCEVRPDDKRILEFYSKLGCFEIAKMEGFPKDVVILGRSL
Put plainly: OGA biochemical assay: inhibition of hydrolysis of fluorescein mono-ß-D-N-Acetyl-Glucosamine (FM-GlcNAc), fluorescence readout. Conditions: FM-GlcNAc substrate; for Emax: read-out: Enzymatic Emax (%); for IC50: read-out: Enzymatic hOGA, pIC50 (converted). The text has this:
The assay is based on the inhibition of the hydrolysis of fluorescein mono-ß-D-N-Acetyl-Glucosamine (FM-GlcNAc) (Mariappa et al. 2015, Biochem J 470:255) by the recombinant human Meningioma Expressed Antigen 5 (MGEA5), also referred to as O-GlcNAcase (OGA). The hydrolysis FM-GlcNAc (Marker Gene technologies, cat #M1485) results in the formation of ß-D-N-glucosamineacetate and fluorescein. The fluorescence of the latter can be measured at excitation wavelength 485 nm and emission wavelength 538 nm. An increase in enzyme activity results in an increase in fluorescence signal. Full length OGA enzyme was purchased at OnGene (cat #TP322411). The enzyme was stored in 25 mM Tris.HCl, pH 7.3, 100 mM glycine, 10% glycerol at −20° C. Thiamet G and GlcNAcStatin were tested as reference compounds (Yuzwa et al. 2008 Nature Chemical Biology 4:483; Yuzwa et al. 2012 Nature Chemical Biology 8:393). The assay was performed in 200 mM Citrate/phosphate buffer supplemented with 0.005% Tween-20. 35.6 g Na2HPO4 2 H2O (Sigma, #C0759) were dissolved in 1 L water to obtain a 200 mM solution. 19.2 g citric acid (Merck, #1.06580) was dissolved in 1 L water to obtain a 100 mM solution. pH of the sodium phosphate solution was adjusted with the citric acid solution to 7.2. The buffer to stop the reaction consists of a 500 mM Carbonate buffer, pH 11.0. 734 mg FM-GlcNAc were dissolved in 5.48 mL DMSO to obtain a 250 mM solution and was stored at −20° C. OGA was used at a 2 nM concentration and FM-GlcNAc at a 100 uM final concentration. Dilutions were prepared in assay buffer. 50 nl of a compound dissolved in DMSO was dispensed on Black Proxiplate™ 384 Plus Assay plates (Perkin Elmer, #6008269) and 3 μl fl-OGA enzyme mix added subsequently. Plates were pre-incubated for 60 min at room temperature and then 2 μl FM-GlcNAc substrate mix added. […] Plates were briefly centrifuged for 1 min at 1000 rpm and incubate at room temperature for 6 h. To stop the reaction 5 μl STOP buffer were added and plates centrifuge again 1 min at 1000 rpm. Fluorescence was quantified in the Thermo Scientific Fluoroskan Ascent or the PerkinElmer EnVision with excitation wavelength 485 nm and emission wavelength 538 nm. For analysis a best-fit curve is fitted by a minimum sum of squares method. From this an IC50 value and Hill coefficient was obtained. High control (no inhibitor) and low control (saturating concentrations of standard inhibitor) were used to define the minimum and maximum values.

For the compound `CCCCn1c(F)cc2c(Nc3c(C)cncc3C)nccc21` [Compound 31], in experiment [1], the Emax was determined as 27% and the EC50 was greater than 1000 nM. Moreover, in experiment [2], the Emax came out at 99% and the IC50 was 302 nM.

As to `CCCCn1cc(F)c2c(Nc3c(C)cncc3C)nccc21` [Compound 34], in experiment [1], the Emax was 36% and the EC50 is greater than 1000 nM. Besides, in experiment [2], the Emax is 99% and the IC50 was 178 nM.

Take `Clc1cccc(Cl)c1Nc1nccc2c1ccn2CC1COC1` [Compound 35]: in experiment [1], the Emax was determined as 20% and the EC50 was greater than 1000 nM. Besides, in experiment [2], the Emax turned out to be 100% and the IC50 is 148 nM.

For the compound `Cc1ccnc(C)c1Nc1nccc2c1ccn2CCC1COC1` [Compound 38], in experiment [1], the Emax was 63% and the EC50 was 562 nM. Further, in experiment [2], the Emax worked out at 100% and the IC50 was 115 nM.

For the compound `CCCC(C)n1ccc2c(Nc3c(Cl)cccc3Cl)nccc21` (stereo not drawn) [Compound 39], in experiment [1], the Emax amounted to 56% and the EC50 is 692 nM. Further, in experiment [2], the Emax was 102% and the IC50 was 53.7 nM.

With `COCCn1ccc2c(Nc3c(Cl)cccc3Cl)nccc21` [Compound 40], in experiment [1], the Emax worked out at 30% and the EC50 was greater than 1000 nM. In experiment [2], the Emax was 102% and the IC50 was 81.3 nM.

`Cc1cncc(C)c1Nc1nccc2c1ccn2CC1CC1` [Compound 41]: in experiment [1], the Emax came to 71% and the EC50 was 95.5 nM. For the same compound, in experiment [2], the Emax turned out to be 101% and the IC50 is 24.5 nM.

For the compound `CCCCn1ccc2c(Nc3c(Cl)cncc3Cl)nccc21` [Compound 42], in experiment [1], the Emax came out at 49% and the EC50 was greater than 1000 nM. Further, in experiment [2], the Emax amounted to 100% and the IC50 was 34.7 nM.

Regarding `CCCCn1ccc2c(Nc3c(F)cncc3C3CC3)nccc21` [Compound 43], in experiment [1], the Emax is 50% and the EC50 is 676 nM. Besides, in experiment [2], the Emax is 99% and the IC50 was 24 nM.

Turning to `CCCCn1ccc2c(Nc3c(F)cncc3CC)nccc21` [Compound 44], in experiment [1], the Emax amounted to 69% and the EC50 is 302 nM. In experiment [2], the Emax is 100% and the IC50 was 35.5 nM.

Take `CCCCn1ccc2c(Nc3c(C)cc4c(c3C)C(=O)N(C)C4)nccc21` [Compound 45]: in experiment [1], the Emax was 87% and the EC50 is 16.6 nM. Also, in experiment [2], the Emax was determined as 103% and the IC50 was 10.5 nM.

Regarding `CCCCn1ccc2c(Nc3c(F)cncc3C(C)C)nccc21` [Compound 46], in experiment [1], the Emax was 67% and the EC50 is 251 nM. In experiment [2], the Emax was found to be 99% and the IC50 was 17.8 nM.

Take `Cc1ccnc(C)c1Nc1nccc2c1ccn2CCC(C)C` [Compound 47]: in experiment [1], the Emax was 95% and the EC50 is 47.9 nM. Besides, in experiment [2], the Emax stood at 101% and the IC50 is 11.7 nM.

Regarding `Cc1cncc(C)c1Nc1nccc2c1ccn2CCC(C)C` [Compound 48], in experiment [1], the Emax is 86% and the EC50 was 30.9 nM. In addition, in experiment [2], the Emax worked out at 102% and the IC50 is 10.7 nM.

`Cc1cncc(C)c1Nc1nccc2c1ccn2CCC1CC1` [Compound 49]: in experiment [1], the Emax stood at 63% and the EC50 is 79.4 nM. In experiment [2], the Emax is 103% and the IC50 is 11.7 nM.

In the case of `N#CCCCn1ccc2c(Nc3c(Cl)cccc3Cl)nccc21` [Compound 50], in experiment [1], the Emax stood at 78% and the EC50 was 302 nM. Also, in experiment [2], the Emax is 102% and the IC50 was 12.6 nM.

Consider `CCCCn1ccc2c(Nc3c(Cl)ccc4c3OCCO4)nccc21` [Compound 51], for which, in experiment [1], the Emax stood at 76% and the EC50 was 117 nM. In experiment [2], the Emax amounted to 102% and the IC50 was 11.2 nM.

Consider `CCCCn1ccc2c(Nc3c(C)cncc3C)nccc21` [Compound 52], for which, in experiment [1], the Emax stood at 72% and the EC50 is 26.9 nM. For the same compound, in experiment [2], the Emax turned out to be 103% and the IC50 is 9.55 nM.

Take `CCCCn1ccc2c(Nc3c(C)cc4c(c3C)OCCO4)nccc21` [Compound 53]: in experiment [1], the Emax is 82% and the EC50 is 20.4 nM. Further, in experiment [2], the Emax amounted to 105% and the IC50 was 1.86 nM.

On to `CCCCn1ccc2c(Nc3c(C)cc(-c4cnn(C)c4)cc3C)nccc21` [Compound 54], for which, in experiment [1], the Emax was determined as 82% and the EC50 is 20.9 nM. Further, in experiment [2], the Emax turned out to be 104% and the IC50 was 2.04 nM.

For the compound `CCCCn1ccc2c(Nc3c(C)ccc(C(=O)N4CCCC4)c3C)nccc21` [Compound 55], in experiment [1], the Emax came out at 104% and the EC50 was 22.4 nM. In experiment [2], the Emax stood at 103% and the IC50 is 1.7 nM.

The Emax is the greatest response seen or fitted, relative to the assay's reference.

(Values after patent publication US20210277003A1, “OGA INHIBITOR COMPOUNDS” (Janssen Pharmaceutica NV, priority 2018, published 2021).)
